Patent US20210253595A1, “2-Aminopyrimidine Derivative and Preparation Method and Use Thereof” (Etern Biopharma (Shanghai) Co., Ltd., priority 2018, published 2021)

What was measured:
IDH1 R132C = IDH1 R132C (Homo sapiens, UniProt O75874, R132C); test: Effect on IDH1 R132C enzyme activity (NADPH consumption, diaphorase/resazurin fluorescence); format: biochemical; settings: 80 ng IDH1 R132C, α-KG 2 mM, NADPH 20 μM, 60 min preincubation
Procedure: (§1) Test method: The enzyme activity of IDH1 converting α-KG to 2HG was measured by the consumption of NADPH. After the enzymatic reaction finished, the amount of residual NADPH can be reflected by fluorescence signal generated by the addition of catalytically excessive diphhorase and reazurin.
(§2) 50 μL mixed liquid of substrate α-KG and NADPH (final concentration of substrate α-KG was 2 mM, final concentration of NADPH was 20 μM), and the plate was incubated in dark for 60 min at room temperature. Detection reaction: 50 μL 1×detection buffer diluted 0.01 unit diabase and 30 μM resazurin were added into each well, and the mixture was incubated in dark at room temperature for 10 min. […] IC50 value was calculated by GraphPad Prism software.

IDH1 R132H = IDH1 R132H (Homo sapiens, UniProt O75874, R132H); test: Effect on IDH1 R132H enzyme activity (NADPH consumption, diaphorase/resazurin fluorescence); format: biochemical; settings: 100 ng IDH1 R132H, α-KG 1 mM, NADPH 20 μM, 60 min preincubation
Procedure: as §1
as §2, with “α-KG was 1 mM, final” for “α-KG was 2 mM, final”, “and the mixture was incubated” for “and the plate was incubated”

[1] = system: 2HG of fibrosarcoma cell line HT1080 expressing IDH1 mutant IDH1-R132C; test: Inhibition of 2HG of fibrosarcoma cell line HT1080; format: cell-based; settings: Homo sapiens, HT-1080; HT1080 cells, 48 hours with compound, 2HG in cell supernatant; read-out: HT1080 2HG inhibitory IC50
Procedure: In this experiment, the inhibitory activity of the compound of the disclosure on the concentration level of 2HG of the fibrosarcoma cell line HT1080 was determined by the following method.
The cells were digested with trypsin and inoculated into a 24 well cell culture plate with a density of 10000 cells/well. The cells were cultured in a 5% CO2 cell incubator at 37° C. After overnight culture, the test compound was added to the cells. The final concentration of DMSO was 0.1%, and DMSO was used as control. The plate was then placed in a cell incubator and cultured for 48 hours.
Detection of 2HG: 2-HG was measured by PicoProbe™ D-2-Hydroxyglutarate (D2HG) Assay Kit of BioVision. 500 uL cell supernatant was taken from each well and added to a 10 kD centrifuge column, 12000 g, and centrifuged for 10 minutes to remove the effect of enzyme activity. […] IC50 value was calculated by GraphPad Prism software.
The inhibition rate of the sample was obtained by the following formula: […]
IC50 value was calculated by GraphPad Prism software.

Sequence of IDH1 R132H (O75874 whole entry R132H): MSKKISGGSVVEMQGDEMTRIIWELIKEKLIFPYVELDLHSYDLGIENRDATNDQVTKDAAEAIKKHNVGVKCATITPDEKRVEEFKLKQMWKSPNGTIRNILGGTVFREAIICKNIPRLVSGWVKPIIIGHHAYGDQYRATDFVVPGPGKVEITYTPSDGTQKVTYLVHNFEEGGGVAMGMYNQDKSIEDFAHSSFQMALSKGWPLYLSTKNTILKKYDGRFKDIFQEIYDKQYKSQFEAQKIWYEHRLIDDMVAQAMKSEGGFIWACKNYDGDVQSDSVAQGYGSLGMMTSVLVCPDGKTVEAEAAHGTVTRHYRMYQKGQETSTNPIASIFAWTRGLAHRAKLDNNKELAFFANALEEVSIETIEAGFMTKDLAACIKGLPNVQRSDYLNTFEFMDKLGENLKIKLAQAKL
Sequence of IDH1 R132C (O75874 whole entry R132C): as the sequence (O75874 whole entry R132H) above, with H132C counted along it

Row | IC50 (IDH1 R132C) | IC50 (IDH1 R132H) | IC50 [1] | SMILES
1 | < 50 nM | < 50 nM | 140 nM | C[C@H](Nc1nccc(N2C(=O)OC3(COC3)[C@@H]2c2ccccc2)n1)c1ncn2c1CCc1cc(C(F)(F)F)ccc1-2 [Compound 16, (S)-8-phenyl-7-(2-(((S)-1-(7-trifluoromethyl-4,5-dihydroimidazo[1,5-a]quinolin-3-yl)ethyl)amino)pyrimidin-4-yl)-2,5-dioxa-7-azaspiro[3.4]octan-6-one]
2 | < 50 nM | < 50 nM | 87 nM | CC(C)[C@H]1C(C)OC(=O)N1c1ccnc(N[C@@H](C)c2ncn3c2CCc2cc(C(F)(F)F)ccc2-3)n1 (stereo partly drawn) [Compound 17, (4S)-4-isopropyl-5-methyl-3-(2-(((S)-1-(7-trifluoromethyl-4,5-dihydroimidazo[1,5-a]quinolin-3-yl)ethyl)amino)pyrimidin-4-yl)oxazolidin-2-one]
3 | < 50 nM | 50 to 500 nM | 26 nM | CC(C)[C@@H]1N(c2ccnc(N[C@@H](C)c3ncn4c3CCc3cc(C(F)(F)F)ccc3-4)n2)C(=O)OC1(C)C [Compound 18, (S)-4-isopropyl-5,5-dimethyl-3-(2-(((S)-1-(7-trifluoromethyl-4,5-dihydroimidazo[1,5-a]quinolin-3-yl)ethyl)amino)pyrimidin-4-yl)oxazolidin-2-one]
4 | < 50 nM | < 50 nM | 7 nM | C[C@H](Nc1nccc(N2C(=O)OC[C@@H]2c2ccccc2)n1)c1ncn2c1CCc1cc(C(F)(F)F)ccc1-2 [Compound 20, (S)-4-phenyl-3-(2-(((S)-1-(7-trifluoromethyl-4,5-dihydroimidazo[1,5-a]quinolin-3-yl)ethyl)amino)pyrimidin-4-yl)oxazolidin-2-one]
5 | < 50 nM | < 50 nM | 17 nM | C[C@H](Nc1nccc(N2C(=O)OC[C@@H]2[C@H](C)F)n1)c1ncn2c1CSc1cc(C(F)(F)F)ccc1-2 [Compound 21, (R)-4-((S)-1-fluoroethyl)-3-(2-(((S)-1-(7-trifluoromethyl-4H-benzo[b]imidazo[1,5-d][1,4]thiazin-3-yl)ethyl)amino)pyrimidin-4-yl)oxazolidin-2-one]
6 | < 50 nM | 50 to 500 nM | 104 nM | C[C@H](Nc1nccc(N2C(=O)OC[C@@H]2C2CC2)n1)c1ncn2c1COc1cc(Cl)ccc1-2 [Compound 22, (S)-3-(2-(((S)-1-(7-chloro-4H-benzo[b]imidazo[1,5-d][1,4]oxazin-3-yl)ethyl)amino)pyrimidin-4-yl)-4-cyclopropyloxazolidin-2-one]
7 | < 50 nM | < 50 nM | 22 nM | Cc1ccc2c(c1)CCc1c([C@H](C)Nc3nccc(N4C(=O)OC[C@@H]4[C@H](C)F)n3)ncn1-2 [Compound 23, (R)-4-((S)-1-fluoroethyl)-3-(2-(((S)-1-(7-methyl-4,5-dihydroimidazo[1,5-a]quinolin-3-yl)ethyl)amino)pyrimidin-4-yl)oxazolidin-2-one]
8 | < 50 nM | < 50 nM | 167 nM | C[C@H](Nc1nccc(N2C(=O)OC[C@@H]2[C@H](C)F)n1)c1ncn2c1COc1cc(C3CC3)ccc1-2 [Compound 26, (R)-3-(2-(((S)-1-(7-cyclopropyl-4H-benzo[b]imidazo[1,5-d][1,4]oxazin-3-yl)ethyl)amino)pyrimidin-4-yl)-4-((S)-1-fluoroethyl)oxazolidin-2-one]
9 | < 50 nM | < 50 nM | 13 nM | C[C@H](Nc1nccc(N2C(=O)OC[C@@H]2[C@H](C)F)n1)c1ncn2c1CCc1ccc(C(F)(F)F)cc1-2 [Compound 28, (R)-4-((S)-1-fluoroethyl)-3-(2-(((S)-1-(8-trifluoromethyl-4,5-dihydroimidazo[1,5-a]quinolin-3-yl)ethyl)amino)pyrimidin-4-yl)oxazolidin-2-one]
